“And” between values parts separate entries of the source, which are not always exact repeats. Equal values may be shown once.
Assays:
[1] = Lipophilicity (logD), n-octanol/PBS pH 7.4 shake-flask; format: physicochemical; conditions: n-octanol/PBS pH 7.4, room temperature
Experimental: An aliquot of 0.65 mL PBS and 0.65 mL n-octanol was removed and weighed, and its radioactivity was determined using an autogamma counter (2480 Wizard^2, Perkin-Elmer, Waltham, MA, USA). Each sample from the remaining organic layer was removed and repartitioned until a consistent logD value was obtained. The logD value was calculated by comparing the ratio of counts per minute (cpm)/g of n-octanol to that of PBS, and is expressed as logD = log[cpm/g (n-octanol)/cpm/g (PBS)]. All measurements were performed in triplicate.

[2] = Metabolite analysis in plasma and liver; format: in vivo, mice
Experimental: Following intravenous injection of [^11C]PK68 (37 MBq, 0.1 mL), the mice (8–9 weeks, 40.1 ± 5.3 g) were killed by cervical dislocation at 5, 15, 30, and 60 min. Blood and liver samples were obtained immediately. Each blood sample was centrifuged in a heparinized tube at 15,000 g for 2 min at 4 °C to separate the plasma. The supernatant was collected in a test tube containing CH3CN, and the resulting mixture was vortexed for 15 s, then centrifuged at 15,000 g for 2 min for deproteinization. The resulting supernatant was collected. Each liver sample was homogenized using a Silent Crusher S homogenizer (Rose scientific, Edmonton, Canada) in ice-cooled saline. The resulting homogenate was mixed with an equivalent amount of CH3CN, and centrifuged at 15,000 g for 2 min for deproteinization. An aliquot of the supernatant (0.1–1.0 mL) obtained from the plasma or liver homogenate was injected into the HPLC system with a radioactivity detector, and analyzed using a Capcell Pak C18 column (4.6 mm i.d. × 250 mm, Shiseido) with a mobile phase [CH3CN/H2O/TFA, (45/55/0.1, v/v/v)] at a flow rate of 1.0 mL/min. The percentage ratio of [^11C]PK68 (tR = 5.0 min) to total radioactivity (corrected for decay) on the HPLC chromatogram was calculated as % = (peak area for [^11C]PK68/total peak area) × 100.

[3] = Ex vivo biodistribution study; format: in vivo, mice; conditions: mean ± SD, n = 3
Experimental: Each mouse (8 weeks old, 37.9 ± 1.0 g) was injected with a bolus of [^11C]PK68 (2.7 MBq, 0.1 mL) via its tail vein. Three mice were sacrificed by cervical dislocation at each experimental time-point (1, 5, 15, 30, and 60 min) after the injection. The blood (heart contents), heart wall, lung, liver, pancreas, spleen, kidneys, adrenals, stomach (including contents), small intestine (including contents), large intestines (including contents), testes, muscles, and whole brain were removed quickly and weighed. The radioactivity in these tissues was measured with an autogamma scintillation counter (2480 Wizard^2) and expressed as %ID/g. All radioactivity measurements were corrected for decay.

logD [1]: 4
unchanged [11C]PK68 in liver ([2]; 5 min after injection): 85%
unchanged [11C]PK68 in plasma ([2]; 5 min after injection): 85%
unchanged [11C]PK68 in liver ([2]; 15 min after injection): 67%
unchanged [11C]PK68 in plasma ([2]; 15 min after injection): 66%
unchanged [11C]PK68 in liver ([2]; 30 min after injection): 68%
unchanged [11C]PK68 in plasma ([2]; 30 min after injection): 65%
unchanged [11C]PK68 in liver ([2]; 60 min after injection): 57%
unchanged [11C]PK68 in plasma ([2]; 60 min after injection): 57% and > 50%
radioactivity in adrenals ([3]; 1 min after injection): 6.2 ± 2.7 %ID/g
radioactivity in blood ([3]; 1 min after injection): 2.4 ± 0.3 %ID/g
radioactivity in brain ([3]; 1 min after injection): 0.6 ± 0.0 %ID/g
radioactivity in heart ([3]; 1 min after injection): 7.6 ± 0.3 %ID/g
radioactivity in large intestine (including contents) ([3]; 1 min after injection): 0.7 ± 0.1 %ID/g
radioactivity in liver ([3]; 1 min after injection): 8.0 ± 0.8 %ID/g
radioactivity in lung ([3]; 1 min after injection): 5.2 ± 0.2 %ID/g
radioactivity in muscle ([3]; 1 min after injection): 1.9 ± 0.3 %ID/g
radioactivity in pancreas ([3]; 1 min after injection): 3.4 ± 0.2 %ID/g
radioactivity in small intestine (including contents) ([3]; 1 min after injection): 1.8 ± 0.1 %ID/g
radioactivity in spleen ([3]; 1 min after injection): 1.5 ± 0.2 %ID/g
radioactivity in stomach (including contents) ([3]; 1 min after injection): 1.2 ± 0.2 %ID/g
radioactivity in testis ([3]; 1 min after injection): 0.3 ± 0.1 %ID/g
radioactivity in adrenals ([3]; 5 min after injection): 4.0 ± 0.5 %ID/g
radioactivity in blood ([3]; 5 min after injection): 1.3 ± 0.2 %ID/g
radioactivity in brain ([3]; 5 min after injection): 0.4 ± 0.0 %ID/g
radioactivity in heart ([3]; 5 min after injection): 2.8 ± 0.3 %ID/g
radioactivity in kidney ([3]; 5 min after injection): 9.9 ± 0.4 %ID/g
radioactivity in large intestine (including contents) ([3]; 5 min after injection): 0.9 ± 0.1 %ID/g
radioactivity in liver ([3]; 5 min after injection): 17.2 ± 0.7 %ID/g
radioactivity in lung ([3]; 5 min after injection): 2.6 ± 0.2 %ID/g
radioactivity in muscle ([3]; 5 min after injection): 1.1 ± 0.1 %ID/g
radioactivity in pancreas ([3]; 5 min after injection): 2.7 ± 0.3 %ID/g
radioactivity in small intestine (including contents) ([3]; 5 min after injection): 3.3 ± 0.1 %ID/g
radioactivity in spleen ([3]; 5 min after injection): 1.6 ± 0.1 %ID/g
radioactivity in stomach (including contents) ([3]; 5 min after injection): 2.0 ± 0.1 %ID/g
radioactivity in testis ([3]; 5 min after injection): 0.3 ± 0.0 %ID/g
radioactivity in adrenals ([3]; 15 min after injection): 3.3 ± 0.5 %ID/g
radioactivity in blood ([3]; 15 min after injection): 1.1 ± 0.1 %ID/g
radioactivity in brain ([3]; 15 min after injection): 0.3 ± 0.0 %ID/g
radioactivity in heart ([3]; 15 min after injection): 2.1 ± 0.3 %ID/g
radioactivity in kidney ([3]; 15 min after injection): 7.7 ± 1.0 %ID/g
radioactivity in large intestine (including contents) ([3]; 15 min after injection): 1.4 ± 0.3 %ID/g
radioactivity in liver ([3]; 15 min after injection): 15.6 ± 0.8 %ID/g
radioactivity in lung ([3]; 15 min after injection): 2.1 ± 0.3 %ID/g
radioactivity in muscle ([3]; 15 min after injection): 0.8 ± 0.1 %ID/g
radioactivity in pancreas ([3]; 15 min after injection): 2.1 ± 0.3 %ID/g
radioactivity in small intestine (including contents) ([3]; 15 min after injection): 9.8 ± 3.1 %ID/g
radioactivity in spleen ([3]; 15 min after injection): 1.4 ± 0.2 %ID/g
radioactivity in stomach (including contents) ([3]; 15 min after injection): 4.0 ± 1.2 %ID/g
radioactivity in testis ([3]; 15 min after injection): 0.3 ± 0.0 %ID/g
radioactivity in adrenals ([3]; 30 min after injection): 2.1 ± 0.8 %ID/g
radioactivity in blood ([3]; 30 min after injection): 0.8 ± 0.1 %ID/g
radioactivity in brain ([3]; 30 min after injection): 0.2 ± 0.0 %ID/g
radioactivity in heart ([3]; 30 min after injection): 1.3 ± 0.1 %ID/g
radioactivity in kidney ([3]; 30 min after injection): 6.2 ± 0.6 %ID/g
radioactivity in large intestine (including contents) ([3]; 30 min after injection): 1.7 ± 0.4 %ID/g
radioactivity in liver ([3]; 30 min after injection): 10.7 ± 0.3 %ID/g
radioactivity in lung ([3]; 30 min after injection): 1.5 ± 0.2 %ID/g
radioactivity in muscle ([3]; 30 min after injection): 0.6 ± 0.1 %ID/g
radioactivity in pancreas ([3]; 30 min after injection): 1.4 ± 0.1 %ID/g
radioactivity in small intestine (including contents) ([3]; 30 min after injection): 16.7 ± 1.4 %ID/g
radioactivity in spleen ([3]; 30 min after injection): 0.9 ± 0.0 %ID/g
radioactivity in stomach (including contents) ([3]; 30 min after injection): 4.7 ± 1.0 %ID/g
radioactivity in testis ([3]; 30 min after injection): 0.3 ± 0.0 %ID/g
radioactivity in adrenals ([3]; 60 min after injection): 1.2 ± 0.1 %ID/g
radioactivity in blood ([3]; 60 min after injection): 0.5 ± 0.1 %ID/g
radioactivity in brain ([3]; 60 min after injection): 0.1 ± 0.0 %ID/g
radioactivity in heart ([3]; 60 min after injection): 0.7 ± 0.1 %ID/g
radioactivity in kidney ([3]; 60 min after injection): 3.2 ± 0.1 %ID/g
radioactivity in large intestine (including contents) ([3]; 60 min after injection): 2.6 ± 0.6 %ID/g
radioactivity in liver ([3]; 60 min after injection): 6.0 ± 0.2 %ID/g
radioactivity in lung ([3]; 60 min after injection): 0.8 ± 0.1 %ID/g
radioactivity in muscle ([3]; 60 min after injection): 0.3 ± 0.0 %ID/g
radioactivity in pancreas ([3]; 60 min after injection): 0.8 ± 0.1 %ID/g
radioactivity in small intestine (including contents) ([3]; 60 min after injection): 27.7 ± 3.0 %ID/g
radioactivity in spleen ([3]; 60 min after injection): 0.5 ± 0.1 %ID/g
radioactivity in stomach (including contents) ([3]; 60 min after injection): 7.2 ± 2.4 %ID/g
radioactivity in testis ([3]; 60 min after injection): 0.2 ± 0.0 %ID/g
SMILES: Cc1ncc(-c2ccc3nc(N[11C](C)=O)sc3c2)cc1NC(=O)OC1CCCCC1 [[^11C]PK68, Cyclohexyl (5-(2-[^11C-carbonyl]acetamidobenzo[d]thiazol-6-yl)-2-methylpyridin-3-yl)carbamate]
